Reference: ChEMBL document CHEMBL1201862, “PubChem BioAssay data set” (2004)
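Exposure lasted 48 hours, with cells grown in 96-well plates and compounds tested at five concentrations. Abbreviation: GI50, concentration required for 50% inhibition of growth.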 Active and inactive are the calls of the source. Rule as the data show it: active = GI50 up to about 1.1 µM and inactive = higher.

What was measured:
Assay in all cases: growth of human tumour cells (NCI), 48 h
SW-620 = tested on: SW-620
MOLT-4 = tested on: MOLT-4
OVCAR-5 = tested on: OVCAR-5
K562 = tested on: K562
RXF 393 = tested on: RXF 393
TK-10 = tested on: TK-10
UO-31 = tested on: UO-31
NCI-H460 = tested on: NCI-H460
A549 = tested on: A549
UACC-257 = tested on: UACC-257
COLO 205 = tested on: COLO 205
M14 = tested on: M14
HCT-116 = tested on: HCT-116
SK-MEL-2 = tested on: SK-MEL-2
KM12 = tested on: KM12
PC-3 = tested on: PC-3
ACHN = tested on: ACHN
MCF7 = tested on: MCF7
HT-29 = tested on: HT-29
A498 = tested on: A498
786-0 = tested on: 786-0
HOP-62 = tested on: HOP-62
Hs-578T = tested on: Hs-578T
OVCAR-8 = tested on: OVCAR-8
OVCAR-4 = tested on: OVCAR-4
BT-549 = tested on: BT-549
T47D = tested on: T47D
SN12C = tested on: SN12C
EKVX = tested on: EKVX
U-251 = tested on: U-251
SF-539 = tested on: SF-539
SNB-19 = tested on: SNB-19
RPMI-8226 = tested on: RPMI-8226
HOP-92 = tested on: HOP-92
NCI/ADR-RES = tested on: NCI/ADR-RES
HCC 2998 = tested on: HCC 2998
HL-60 = tested on: HL-60
OVCAR-3 = tested on: OVCAR-3
LOX IMVI = tested on: LOX IMVI
HCT-15 = tested on: HCT-15
CAKI-1 = tested on: CAKI-1
MDA-MB-435 = tested on: MDA-MB-435
SK-MEL-28 = tested on: SK-MEL-28
SNB-75 = tested on: SNB-75
DU-145 = tested on: DU-145
NCI-H522 = tested on: NCI-H522
CCRF-CEM = tested on: CCRF-CEM
SF-268 = tested on: SF-268
NCI-H23 = tested on: NCI-H23
Malme-3M = tested on: Malme-3M
SF-295 = tested on: SF-295
SK-OV-3 = tested on: SK-OV-3
SK-MEL-5 = tested on: SK-MEL-5
NCI-H226 = tested on: NCI-H226
SR = tested on: SR
MDA-N = tested on: MDA-N
MDA-MB-231 = tested on: MDA-MB-231
IGROV-1 = tested on: IGROV-1
UACC-62 = tested on: UACC-62

Compound: N#CCc1n[nH]c2nc(SCc3ccccc3)nc(N3CCCCC3)c12
- GI50 (SW-620): 19.5 µM (inactive)
- GI50 (MOLT-4): 20.6 µM (inactive)
- GI50 (OVCAR-5): 20.2 µM (inactive)
- GI50 (K562): 18.6 µM (inactive)
- GI50 (RXF 393): 17.1 µM (inactive)
- GI50 (TK-10): 23.1 µM (inactive)
- GI50 (UO-31): 20.1 µM (inactive)
- GI50 (NCI-H460): 19.6 µM (inactive)
- GI50 (A549): 19.3 µM (inactive)
- GI50 (UACC-257): 20.8 µM (inactive)
- GI50 (COLO 205): 17.9 µM (inactive)
- GI50 (M14): 19.4 µM (inactive)
- GI50 (HCT-116): 17.7 µM (inactive)
- GI50 (SK-MEL-2): 20.7 µM (inactive)
- GI50 (KM12): 17.7 µM (inactive)
- GI50 (PC-3): 18.8 µM (inactive)
- GI50 (ACHN): 21.2 µM (inactive)
- GI50 (MCF7): 21.9 µM (inactive)
- GI50 (HT-29): 20.3 µM (inactive)
- GI50 (A498): 30.5 µM (inactive)
- GI50 (786-0): 17.3 µM (inactive)
- GI50 (HOP-62): 20.4 µM (inactive)
- GI50 (Hs-578T): 21.4 µM (inactive)
- GI50 (OVCAR-8): 38.9 µM (inactive)
- GI50 (OVCAR-4): 19.5 µM (inactive)
- GI50 (BT-549): 18.6 µM (inactive)
- GI50 (T47D): 19.5 µM (inactive)
- GI50 (SN12C): 13 µM (inactive)
- GI50 (EKVX): 20.5 µM (inactive)
- GI50 (U-251): 18.7 µM (inactive)
- GI50 (SF-539): 21.4 µM (inactive)
- GI50 (SNB-19): 18.9 µM (inactive)
- GI50 (RPMI-8226): 27.1 µM (inactive)
- GI50 (HOP-92): 16.6 µM (inactive)
- GI50 (NCI/ADR-RES): 17.6 µM (inactive)
- GI50 (HCC 2998): 17.5 µM (inactive)
- GI50 (HL-60): 25.8 µM (inactive)
- GI50 (OVCAR-3): 20.7 µM (inactive)
- GI50 (LOX IMVI): 21 µM (inactive)
- GI50 (HCT-15): 32.7 µM
- GI50 (CAKI-1): 19.9 µM (inactive)
- GI50 (MDA-MB-435): 19.9 µM (inactive)
- GI50 (SK-MEL-28): 20.5 µM (inactive)
- GI50 (SNB-75): 18.2 µM (inactive)
- GI50 (DU-145): 18.2 µM (inactive)
- GI50 (NCI-H522): 19.3 µM (inactive)
- GI50 (CCRF-CEM): 17.3 µM (inactive)
- GI50 (SF-268): 19.2 µM (inactive)
- GI50 (NCI-H23): 18.5 µM (inactive)
- GI50 (Malme-3M): 24.5 µM (inactive)
- GI50 (SF-295): 19.6 µM (inactive)
- GI50 (SK-OV-3): 26.4 µM (inactive)
- GI50 (SK-MEL-5): 18.5 µM (inactive)

Compound: ClCC1(CCl)COC1
- GI50 (SW-620): > 100 µM (inactive)
- GI50 (MOLT-4): > 100 µM (inactive)
- GI50 (NCI-H226): > 100 µM (inactive)
- GI50 (K562): > 100 µM (inactive)
- GI50 (RXF 393): > 100 µM (inactive)
- GI50 (TK-10): > 100 µM (inactive)
- GI50 (UO-31): > 100 µM (inactive)
- GI50 (NCI-H460): > 100 µM (inactive)
- GI50 (A549): > 100 µM (inactive)
- GI50 (UACC-257): > 100 µM (inactive)
- GI50 (COLO 205): > 100 µM (inactive)
- GI50 (M14): > 100 µM (inactive)
- GI50 (HCT-116): > 100 µM (inactive)
- GI50 (KM12): > 100 µM (inactive)
- GI50 (PC-3): > 100 µM (inactive)
- GI50 (ACHN): > 100 µM (inactive)
- GI50 (MCF7): > 100 µM (inactive)
- GI50 (SR): > 100 µM (inactive)
- GI50 (HT-29): > 100 µM (inactive)
- GI50 (A498): > 100 µM (inactive)
- GI50 (Hs-578T): > 100 µM (inactive)
- GI50 (OVCAR-8): > 100 µM (inactive)
- GI50 (OVCAR-4): > 100 µM (inactive)
- GI50 (T47D): > 100 µM (inactive)
- GI50 (SN12C): > 100 µM (inactive)
- GI50 (U-251): > 100 µM (inactive)
- GI50 (SNB-19): > 100 µM (inactive)
- GI50 (HOP-92): > 100 µM (inactive)
- GI50 (NCI/ADR-RES): > 100 µM (inactive)
- GI50 (HCC 2998): > 100 µM (inactive)
- GI50 (HL-60): > 100 µM (inactive)
- GI50 (OVCAR-3): > 100 µM (inactive)
- GI50 (LOX IMVI): > 100 µM (inactive)
- GI50 (HCT-15): > 100 µM
- GI50 (MDA-N): > 100 µM (inactive)
- GI50 (MDA-MB-435): > 100 µM (inactive)
- GI50 (SK-MEL-28): > 100 µM (inactive)
- GI50 (SNB-75): > 100 µM (inactive)
- GI50 (DU-145): > 100 µM (inactive)
- GI50 (NCI-H522): > 100 µM (inactive)
- GI50 (CCRF-CEM): > 100 µM (inactive)
- GI50 (SF-268): > 100 µM (inactive)
- GI50 (NCI-H23): > 100 µM (inactive)
- GI50 (SF-295): > 100 µM (inactive)
- GI50 (SK-OV-3): > 100 µM (inactive)
- GI50 (SK-MEL-5): > 100 µM (inactive)
- GI50 (MDA-MB-231): > 100 µM (inactive)

Compound: CC(C)(C)COC(=O)C(C)(C)NC(=O)C(CC(=O)OCc1ccccc1)NC(=O)OCc1ccccc1 (stereo not drawn)
- GI50 (SW-620): 60.4 µM (inactive)
- GI50 (MOLT-4): 17.6 µM (inactive)
- GI50 (NCI-H226): 29.2 µM (inactive)
- GI50 (OVCAR-5): 26.8 µM (inactive)
- GI50 (K562): 30.1 µM (inactive)
- GI50 (RXF 393): > 100 µM (inactive)
- GI50 (TK-10): 19.4 µM (inactive)
- GI50 (UO-31): 24 µM (inactive)
- GI50 (NCI-H460): 30 µM (inactive)
- GI50 (A549): 29.7 µM (inactive)
- GI50 (UACC-257): 25.5 µM (inactive)
- GI50 (COLO 205): 21 µM (inactive)
- GI50 (M14): 32.1 µM (inactive)
- GI50 (HCT-116): 32.7 µM (inactive)
- GI50 (SK-MEL-2): 49 µM (inactive)
- GI50 (KM12): 35.2 µM (inactive)
- GI50 (PC-3): 25.7 µM (inactive)
- GI50 (ACHN): 32.9 µM (inactive)
- GI50 (MCF7): 32.4 µM (inactive)
- GI50 (SR): 25.5 µM (inactive)
- GI50 (HT-29): 24.8 µM (inactive)
- GI50 (IGROV-1): 61 µM (inactive)
- GI50 (A498): 28.2 µM (inactive)
- GI50 (786-0): > 100 µM (inactive)
- GI50 (HOP-62): 75 µM (inactive)
- GI50 (Hs-578T): 27.9 µM (inactive)
- GI50 (OVCAR-8): 40.1 µM (inactive)
- GI50 (OVCAR-4): 50.5 µM (inactive)
- GI50 (T47D): 20.2 µM (inactive)
- GI50 (SN12C): 25.6 µM (inactive)
- GI50 (EKVX): 54.3 µM (inactive)
- GI50 (U-251): 31.5 µM (inactive)
- GI50 (UACC-62): 19.5 µM (inactive)
- GI50 (SF-539): 25.1 µM (inactive)
- GI50 (SNB-19): 38.3 µM (inactive)
- GI50 (RPMI-8226): 26.5 µM (inactive)
- GI50 (HOP-92): 53.1 µM (inactive)
- GI50 (NCI/ADR-RES): 36.8 µM (inactive)
- GI50 (HCC 2998): 35.3 µM (inactive)
- GI50 (HL-60): 46.5 µM (inactive)
- GI50 (OVCAR-3): 41.4 µM (inactive)
- GI50 (LOX IMVI): 43.5 µM (inactive)
- GI50 (HCT-15): 25.6 µM
- GI50 (CAKI-1): 58.2 µM (inactive)
- GI50 (MDA-N): 30.9 µM (inactive)
- GI50 (MDA-MB-435): 25.8 µM (inactive)
- GI50 (SK-MEL-28): > 100 µM (inactive)
- GI50 (SNB-75): 13.9 µM (inactive)
- GI50 (DU-145): 62.2 µM (inactive)
- GI50 (NCI-H522): 24 µM (inactive)
- GI50 (CCRF-CEM): 25.3 µM (inactive)
- GI50 (SF-268): 87.1 µM (inactive)
- GI50 (NCI-H23): 26.7 µM (inactive)
- GI50 (Malme-3M): 29.6 µM (inactive)
- GI50 (SF-295): 34.4 µM (inactive)
- GI50 (SK-OV-3): 35.4 µM (inactive)
- GI50 (SK-MEL-5): 11.1 µM (inactive)
- GI50 (MDA-MB-231): 42.9 µM (inactive)
